Laboratory results taken from patent US20240189284A1, “COMPOSITION FOR PROMOTING LIPOLYSIS” (SUNTORY HOLDINGS LIMITED, priority 2021, published 2024).

How the values were obtained:
[1] = mice, oral administration, vs. mice not administered; cited from earlier work
[2] = test system: lipolysis; assay: Blood metabolome evaluation study on human (placebo-controlled, randomized, double-blind, parallel-group; CE-TOF-MS); format: in vivo
Procedure: In order to evaluate the influence of supplements containing ergothioneine on the human blood metabolome, a placebo-controlled, randomized, double-blind, parallel-group study was conducted on subjects including male and female adults (46 subjects in a test food group; 46 subjects in a control food group; 92 subjects in total). In this study, one capsule containing 20 mg ergothioneine (test food) or one capsule not containing ergothioneine (control food) was fed per day for four weeks. The blood metabolome of each subject was measured for pre-testing before starting the study (before starting ingestion of the test food or control food). After ingestion of the test food or control food for four weeks, the blood metabolome of each subject was measured again (testing on week 4). The blood metabolome was measured by a capillary electrophoresis time-of-flight mass spectrometry (CE-TOF-MS) available from Human Metabolome Technologies, Inc. Two types of food for evaluation, which were indistinguishable in appearance, flavor, and the like, were used. • Test food: capsule containing a test substance (20 mg L-ergothioneine) • Control food: capsule containing no test substance Each type of food for evaluation contained raw materials such as dextrin, hydroxypropyl cellulose, carrageenan, potassium chloride, and titanium oxide, in addition to the test substance. The control food was produced using the same raw materials used in the test food, except that the test substance (L-ergothioneine) was not added. For each of lipid metabolism-related metabolites and lipids of various kinds for which significant changes were observed by the blood metabolome measurement, a ratio (test food group/control food group) was determined from the average of measurements (blood concentrations) of the test food group and the control food group at the time of testing on week 4. FIG. 1 is a graph showing blood metabolome measurements of the test food group and the control food group at the time of testing on week 4 in the form of ratios (test food group/control food group). […]

[3] = L-ergothioneine ingested compared to no L-ergothioneine ingested

For C[N+](C)(C)[C@@H](Cc1c[nH]c(=S)[nH]1)C(=O)[O-] [L-ergothioneine], the peritesticular fat weight [1] is given as “lower”, the “triglyceride (neutral fat) level in plasma” value [1] is given as “lower” and the “blood free fatty acid (e.g., palmitoleic acid) concentration” value [2, 3] is given as “increased”. For the same molecule, the blood glycerol concentration [2, 3] was “significantly increased” and the promotion of lipolysis ([2]; human adults, 20 mg L-ergothioneine per day for four weeks, blood metabolome as a whole) was “action to promote lipolysis”.
